Assay results: patent US20020026053A1, “Novel 3-(substituted) -2- indolinones compounds and use thereof as inhibitors of protein kinase activity” (priority 1997, published 2002)

Biological target: T1, EGFR (Homo sapiens, UniProt P00533)
T1 construct: endogenous in cells; host or cells: A431 cells (lysate, captured with SUMO1 anti-EGFR antibody)
Assay: Biochemical EGFR Assay
Set-up: concentration or dose not given beside the values
Procedure, shortened: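 Readout is ABTS absorbance at 410 nm after anti-phosphotyrosine and HRP-antibody detection of EGFR autophosphorylation. The kinase was immunocaptured from A431 lysate, exposed 30 min to test compound diluted 1:10 in TBS, then phosphorylated for 5 min with ATP/MnCl2 before an EDTA stop.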

T1 sequence (P00533 25-1210): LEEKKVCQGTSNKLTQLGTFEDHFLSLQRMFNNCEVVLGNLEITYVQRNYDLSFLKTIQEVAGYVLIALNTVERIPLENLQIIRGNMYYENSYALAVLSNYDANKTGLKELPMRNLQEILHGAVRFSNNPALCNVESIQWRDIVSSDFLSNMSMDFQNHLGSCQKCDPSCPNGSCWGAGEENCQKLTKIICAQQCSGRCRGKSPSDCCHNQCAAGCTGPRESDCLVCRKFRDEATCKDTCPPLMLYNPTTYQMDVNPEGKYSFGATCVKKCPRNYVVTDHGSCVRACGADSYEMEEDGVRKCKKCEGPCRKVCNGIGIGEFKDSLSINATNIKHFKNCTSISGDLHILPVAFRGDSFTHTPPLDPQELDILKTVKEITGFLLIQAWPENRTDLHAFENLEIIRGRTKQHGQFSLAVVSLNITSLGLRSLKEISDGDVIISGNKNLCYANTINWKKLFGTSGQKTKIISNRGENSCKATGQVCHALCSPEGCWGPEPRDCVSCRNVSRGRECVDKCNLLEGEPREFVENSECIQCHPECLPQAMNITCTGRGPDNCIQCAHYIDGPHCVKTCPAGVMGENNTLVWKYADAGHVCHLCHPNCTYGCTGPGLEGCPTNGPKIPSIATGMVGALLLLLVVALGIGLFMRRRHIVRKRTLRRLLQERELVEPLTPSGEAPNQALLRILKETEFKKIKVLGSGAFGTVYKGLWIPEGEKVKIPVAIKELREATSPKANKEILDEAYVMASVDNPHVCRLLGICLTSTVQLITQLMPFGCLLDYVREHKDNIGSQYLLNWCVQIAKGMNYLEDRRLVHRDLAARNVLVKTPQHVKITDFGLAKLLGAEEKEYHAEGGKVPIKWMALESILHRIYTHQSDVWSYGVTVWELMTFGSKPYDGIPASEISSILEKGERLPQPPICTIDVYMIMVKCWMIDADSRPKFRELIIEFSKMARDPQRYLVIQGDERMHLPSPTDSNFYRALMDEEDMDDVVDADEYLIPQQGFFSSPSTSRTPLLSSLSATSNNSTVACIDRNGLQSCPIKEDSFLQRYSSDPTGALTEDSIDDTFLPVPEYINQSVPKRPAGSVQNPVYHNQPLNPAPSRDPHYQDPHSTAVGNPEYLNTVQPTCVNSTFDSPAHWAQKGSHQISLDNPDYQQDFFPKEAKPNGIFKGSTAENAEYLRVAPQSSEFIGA

| SMILES | Biochem EGFR % Inhibition (P.167) [%] |
| --- | --- |
| N#Cc1ccccc1C=C1C(=O)Nc2ccc(S(=O)(=O)N3CCOCC3)cc21 [10735/F07] | 28.9 |
| O=C1Nc2ccc(S(=O)(=O)N3CCOCC3)cc2C1=Cc1c(F)cccc1F [10735/F08] | 9.4 |
| O=C1Nc2ccc(S(=O)(=O)N3CCOCC3)cc2C1=Cc1cccc2ccccc12 [10735/F09] | 0.0 |
| O=C1Nc2ccc(S(=O)(=O)N3CCOCC3)cc2C1=Cc1ccc(Cl)cc1Cl [10735/F10] | 15.7 |
| O=C1Nc2ccc(S(=O)(=O)N3CCOCC3)cc2C1=Cc1ccc(-c2ccccc2)cc1 [10735/F11] | 14.8 |
| Cc1ccccc1C=C1C(=O)Nc2ccc(CCCl)cc21 [10735/G02] | 23.7 |
| O=C1Nc2ccc(CCCl)cc2C1=Cc1ccc(F)c(F)c1 [10735/G03] | 30.3 |
| O=C1Nc2ccc(CCCl)cc2C1=Cc1cc(F)cc(F)c1 [10735/G04] | 22.8 |
| O=C1Nc2ccc(CCCl)cc2C1=Cc1cccc(C(F)(F)F)c1 [10735/G05] | 16.7 |
| O=C1Nc2ccc(CCCl)cc2C1=Cc1cc(C(F)(F)F)cc(C(F)(F)F)c1 [10735/G06] | 2.1 |
